What was measured:
[1] = system: arterial actin-myosin interactions; assay: Inhibition of superprecipitation (antagonism of actin-myosin interaction), Silver et al.; assay type: biochemical; conditions: six minute time-point
Procedure: . The data reported herein was obtained at a six minute time-point rather than the 1.5, 5 and 12 minute time points indicated in the superprecipita- tion assay of the Silver et al paper.
(§1) The following examples illustrate the preparation of a representative number of compounds of this invention. After each example, the Ca+2 antagonist activity of the compound is presented in terms of percent relaxation of aortic tissue (P.R.) at 10-^5M concentration. […] Inhibition of super- precipitation (Antag. of Actin-Myosin interaction) is expressed as percent inhibition (mean ± standard error of the mean for at least 3 separate experiments) at a compound concentration. In the same manner, inhibition of myosin light chain phosphorylation (Antag. of MLCP) is expressed as a percent inhibition at a compound concentration. Similarly, the antihypertensive activity is reported in terms of millimetres mercury (mmHg) systolic blood pressure (B.P.) reduction at the stated time post 50 mg/kg oral dosing or other dosing as indicated.

[2] = target: Ca^+2-calmodulin dependent myosin light chain phosphorylation (Bos taurus, UniProt Q28824); assay: Inhibition of myosin light chain phosphorylation (MLCP), Silver et al.; assay type: biochemical; conditions: read-out: Antag. of MLCP (percent inhibition of myosin light chain phosphorylation)
Procedure: The data reported herein was obtained at a six minute time-point rather than the 1.5, 5 and 12 minute time points indicated in the superprecipita- tion assay of the Silver et al paper.
as §1

[3] = system: isolated paced intact rabbit atria; assay: Cardiac depressant (negative inotropic) effect in isolated paced rabbit atria; conditions: Oryctolagus cuniculus; rabbit atria paced at 3Hz, 30°C, cumulative dosing; read-out: IC25 (concentration which produces 25% inhibition of isometric force)
Procedure: The potential for detrimental cardiac depressant (negative inotropic) effects of the compounds of this invention was assessed in isolated paced intact rabbit atria. […] Muscles (N=5-9/compound) were stimulated at a frequency of 3Hz with a WPI stimulator for a 60 minute equilibration period. Changes in isometric force were recorded as described for the aortic smooth muscle experiments, supra. […]

[4] = system: rabbit aortic smooth muscle; assay: Ca+2 antagonism: relaxation of KCl-depolarized rabbit aortic smooth muscle strips; conditions: Oryctolagus cuniculus, 20 min, compound 1 x 10^-5M; 100mM KCl contraction; 20 minutes after addition; mean of two experiments; read-out: P.R. (percent relaxation of aortic tissue)
Procedure: The composition of PSS was as follows (mM): NaCl 112,KCI 5, NaHCO3 25 KH2PO4 1, MgSO4 1.2, CaCl2 2.5, dextrose 10. The lower end of each tissue strip was attached to a fixed post and the upper end to a Statham UC-4 transducer. Changes in force development were recorded on a Beckman Dynograph Polygraphic Recorder.
Following equilibration, the muscles were contracted in a depolarizing solution of PSS in which 100mM KCI was substituted for an equimolar concentration of NaCI. Following attainment of steady- state isometric force (20 min.), the test compound was added to afford a final concentration of 1 x 10^-5M. The inhibitory effect, expressed as percent relaxation, was determined from the mean of two experiments twenty minutes after the addition of the compound being tested.
as §1

[5] = system: spontaneously hypertensive rats; assay: Hypotensive effect: systolic blood pressure of spontaneously hypertensive rats; assay type: in vivo; conditions: mmHg per method
Procedure: The hypotensive in vivo effect of the compounds of this invention was determined by measuring changes in the systolic blood pressure of spontaneously hypertensive rats with a Decker Caudal Plethysmograph. The compound being tested was administered to a group of 4 rats and their systolic pressure was determined prior to and at 1.5 and 4 hours after compound administration. Initial testing was done by oral administration of the compound. Results (mmHg) are expressed as decreases in systolic blood pressure.
as §1

[6] = dose 10mg/kg oral, at 1.5 hours
[7] = dose 25mg/kg oral, at 1.5 hours
[8] = dose 50mg/kg oral, at 1.5 hours

Row | SMILES | inhibition at 25 µM [2] | inhibition at 50 µM [2] | inhibition at 100 µM [2] | inhibition at 10 µM ([2]; 10µM) | Antag. of Actin-Myosin (percent inhibition of superprecipitation) ([1]; 25µM) | Antag. of Actin-Myosin (percent inhibition of superprecipitation) ([1]; 50µM) | IC25 [3] | inhibition at 10 µM [4] | B.P. (systolic blood pressure reduction) [5, 6] | Antag. of Actin-Myosin (percent inhibition of superprecipitation) ([1]; 100µM) | B.P. (systolic blood pressure reduction) [5, 7] | B.P. (systolic blood pressure reduction) ([5]; dose 25mg/kg oral, at 4 hours) | B.P. (systolic blood pressure reduction) [5, 8] | B.P. (systolic blood pressure reduction) ([5]; dose 50mg/kg oral, at 4 hours) | B.P. (systolic blood pressure reduction) ([5]; dose 10mg/kg oral, at 4 hours) | Antag. of Actin-Myosin (percent inhibition of superprecipitation) ([1]; 10µM)
1 | CC1=C(C(=O)OCCOc2ccccc2)C(c2c(F)c(F)c(F)c(F)c2F)C2=C(CNCC2=O)N1 (racemic) [Example 2, 1,4,5,6,7,8-Hexahydro-2-methyl-5-oxo-4-(pentafluorophenyl)-1,7-naphthyridine-3-carboxylic acid 2-phenoxvethvl ester] | 24 ± 3% | 54 ± 4% | 69 ± 3% |  | 28± 2% | 58± 4% | 1 µM | 71% | -39 mm |  |  |  |  |  |  | 
2 | CC1=C(C(=O)OCCOc2ccccc2)C(c2c(F)c(F)c(F)c(F)c2F)C2=C(CNCC2=O)N1 (single isomer, unassigned; (-)) [Example 3, (-)-1,4,5,6,7,8-Hexahydro-2-methyl-5-oxo-4-(pentafluorophenyl)-1,7-naphthridine-3-carboxylic acid 2-phenoxyethyl ester] |  | 57% | 70% |  |  | 65% | > 10 µM | 56% |  | 76% | -6 mm | -14 mm |  |  |  | 
3 | COC(COC(=O)C1=C(C)NC2=C(C(=O)CNC2)C1c1cccc(Cl)c1Cl)c1ccccc1 (stereo not shown) [Example 1, 4-(2,3-Dichloroohenyl)-1,4,5,6,7,8-hexahydro-2-methyl-5-oxo-1,7-naphthyridine-3-carboxylic acid 2-methoxy-2-phenylethyl ester] | 38 ± 3% | 66% | 76 ± 2% |  | 43± 2% | 75±3% | 10 µM | 32% |  | 83± 3% |  |  | -53 mm | -30 mm |  | 
4 | CO[C@@H](COC(=O)C1=C(C)NC2=C(C(=O)CNC2)C1c1c(F)c(F)c(F)c(F)c1F)c1ccccc1 (stereo partly drawn) [Example 6, 1,4,5,6,7,8,-Hexahydro-2-methyl-5-oxo-4-(pentafluorophenyl)-1,7-naphthyridine-3-carboxylic acid (R)-2-methoxy-2-phenylethyl ester] |  | 56% | 70% |  |  | 64% | 0.6 µM | 71% | -56 mm | 74% |  |  |  |  | -49 mm | 
5 | CO[C@H](COC(=O)C1=C(C)NC2=C(C(=O)CNC2)C1c1c(F)c(F)c(F)c(F)c1F)c1ccccc1 (stereo partly drawn) [Example 7, 1,4,5,6,7,8-Hexahydro-2-methyl-5-oxo-4-(pentafluorophenyl)-1,7-naphthyridine-3-carboxylic acid (S)-2-methoxy-2-ohenylethyl ester] |  | 59% | 74% |  |  | 67% | 65 µM | 68% | -51 mm | 80% |  |  |  |  | -54 mm | 
6 | CC1=C(C(=O)OCCOc2ccccc2)C(c2ccccc2C)C2=C(CNCC2=O)N1 (stereo not shown) [Example 15, 1,4,5,6,7,8-Hexahydro-2-methyl-4-(2-methylphenyl)-5-oxo-1,7-naphthyridine-3-carboxylic arid 2-phenoxyethyl ester] |  |  |  |  |  |  | 4.7 µM | 63% |  | 66±5% | -29 mm | -39 mm |  |  |  | 

Second part, led by results:

Row | inhibition at 25 µM [2] | inhibition at 50 µM [2] | inhibition at 100 µM [2] | inhibition at 10 µM ([2]; 10µM) | SMILES | Antag. of Actin-Myosin (percent inhibition of superprecipitation) ([1]; 25µM) | Antag. of Actin-Myosin (percent inhibition of superprecipitation) ([1]; 50µM) | IC25 [3] | inhibition at 10 µM [4] | B.P. (systolic blood pressure reduction) [5, 6] | Antag. of Actin-Myosin (percent inhibition of superprecipitation) ([1]; 100µM) | B.P. (systolic blood pressure reduction) [5, 7] | B.P. (systolic blood pressure reduction) ([5]; dose 25mg/kg oral, at 4 hours) | B.P. (systolic blood pressure reduction) [5, 8] | B.P. (systolic blood pressure reduction) ([5]; dose 50mg/kg oral, at 4 hours) | B.P. (systolic blood pressure reduction) ([5]; dose 10mg/kg oral, at 4 hours) | Antag. of Actin-Myosin (percent inhibition of superprecipitation) ([1]; 10µM)
7 | 35 ± 5% | 62 ± 1% | 75 ± 3% |  | COC(COC(=O)C1=C(C)NC2=C(C(=O)CNC2)C1c1cccc(Cl)c1C)c1ccccc1 (stereo not shown) [Example 10, 4-(3-chloro-2-methylphenyl)-1,4,5,6,7,8-hexahydro-2-methyl-5-oxo-1,7-naphthyridine-3-carboxylic acid 2-methoxy-2-phenylethyl ester] | 45±3% | 68±2% | > 10 µM | 60% | -28 mm | 76±2% |  |  |  |  | -19 mm | 
8 |  |  | 24% |  | COC(COC(=O)C1=C(C)NC2=C(C(=O)CNC2)C1c1ccccc1C(F)(F)F)c1ccccc1 (stereo not shown) [Example 12, 1,4,5,6,7,8-Hexahydro-2-methyl-5-oxo-4-[2-(trifluoromethyl)phenyl]-1,7-naphthyridine-3-carboxylic acid 2-methoxv-2-ohenvlethvl ester] |  |  | 2 µM | 39% |  | 30% | -56 mm | -56 mm |  |  |  | 
9 | 58% |  | 70% |  | CC1=C(C(=O)OC(C)COc2ccccc2)C(c2c(F)c(F)c(F)c(F)c2F)C2=C(CNCC2=O)N1 (stereo not shown) [Example 13, 1,4,5,6,7,8-Hexahydro-2-methyl-5-oxo-4-(pentafluorophenyl)-1,7-naphthylidine-3-carboxylic acid 1-methvl-2-ahenoxvethvl ester] | 61% |  | 10 µM | 46% |  | 78% |  |  | -35 mm | -60 mm |  | 
10 | 59% |  | 76% |  | CC1=C(C(=O)OCC2COc3ccccc3O2)C(c2c(F)c(F)c(F)c(F)c2F)C2=C(CNCC2=O)N1 (stereo not shown) [Example 14, 1,4,5,6,7,8-Hexahydro-2-methyl-5-oxo-4-(pentafluorophenyl)-1,7-naphthyridine-3-carboxylic acid 2.3-dihvdro-1.4-benzodioxin-2-vimethvl ester] | 65% |  | 3.2 µM | 62% |  | 80% |  |  | -46 mm | -42 mm |  | 
11 | 39 ± 2% | 59 ± 3% | 67 ± 2% | 11% | CC1=C(C(=O)OCCOc2ccccc2)C(c2cccc(Cl)c2C)C2=C(CNCC2=O)N1 (stereo not shown) [Example 17, 4-(3-Chloro-2-methylphenyl)-1,4,5,6,7,8-hexahydro-2-methyl-5-oxo-1,7-naphthyridine-3-carboxylic acid 2-phenoxyethyl ester] | 44±2% | 64±3% | 1 µM | 74% |  | 71±2% | -10 mm | -45 mm |  |  |  | 22%

— EP0211584A1, “Antihypertensive agents” (AMERICAN HOME PRODUCTS CORPORATION, priority 1985, dated 1987)
